Test results: patent US10959432B2, “Microbiocidal oxadiazole derivatives” (Syngenta Participations AG, priority 2016, dated 2021)

Key:
Uromyces viciae-fabae = assay: Fungicidal activity against Uromyces viciae-fabae / field bean / leaf disc preventative (faba-bean rust); type: in vivo; settings: foliar, 288 h, 100 ppm in the applied formulation, field bean leaf discs, preventative (inoculated two hours after application), assessed 12 days after application, read-out: disease control compared to untreated control leaf discs
Experimental: Leaf disks or leaf segments of various plant species are cut from plants grown in a greenhouse. The cut leaf disks or segments are placed in multiwell plates (24-well format) onto water agar. The leaf disks are sprayed with a test solution before (preventative) or after (curative) inoculation. Compounds to be tested are prepared as DMSO solutions (max. 10 mg/ml) which are diluted to the appropriate concentration with 0.025% Tween20 just before spraying. The inoculated leaf disks or segments are incubated under defined conditions (temperature, relative humidity, light, etc.) according to the respective test system. A single evaluation of disease level is carried out 3 to 14 days after inoculation, depending on the pathosystem. Percent disease control relative to the untreated check leaf disks or segments is then calculated. General Examples of Liquid Culture Tests in Well Plates:
Example 5: Fungicidal Activity Against Uromyces viciae-fabae/Field Bean/Leaf Disc Preventative (Faba-Bean Rust)
Field bean leaf discs are placed on water agar in multiwell plates (96-well format) and 10 μl of the formulated test compound diluted in acetone and a spreader pipetted onto the leaf disc. Two hours after application leaf discs are inoculated by spraying a spore suspension on the lower leaf surface. The leaf discs are incubated in a climate cabinet at 22° C. with 18 hour day and 70% relative humidity. The activity of a compound is assessed as percent disease control compared to untreated when an appropriate level of disease damage appears in untreated check leaf disks (12 days after application).
The following compounds at 100 ppm in the applied formulation give at least 80% disease control in this test when compared to untreated control leaf discs under the same conditions, which show extensive disease development.

Phakopsora pachyrhizi = assay: Fungicidal activity against Phakopsora pachyrhizi / soybean / leaf disc preventative (Asian soybean rust); type: in vivo; settings: foliar, 200 ppm in the applied formulation, soybean leaf disks, preventative (inoculated one day after application), assessed 12 to 14 days after application, read-out: disease control compared to untreated control leaf disks
Method in brief: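 Soybean leaf discs on water agar sprayed with formulated compound diluted in water; spore suspension sprayed on lower leaf surface one day later. Incubated 24-36 h dark at 20° C, 75% rh, then 20° C, 12 h light/day, 75% rh. Percent disease control versus untreated scored 12 to 14 days after application.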

[1] = tested on: Glomerella laqenarium (Colletotrichum lagenarium); assay: Fungicidal activity against Glomerella lagenarium (Colletotrichum lagenarium) liquid culture / cucumber / preventative (anthracnose); type: cell-based; settings: Colletotrichum orbiculare; 20 ppm in the applied formulation; liquid culture in PDB, 24° C., 3 to 4 days after application; read-out: disease control compared to untreated control (inhibition of growth measured photometrically)
Method in brief: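 Cryostored conidia mixed into potato dextrose broth and added to test compound (from DMSO solution) in microtiter plates. Incubated at 24 °C; growth inhibition read photometrically 3 to 4 days after application, as percent activity versus untreated check.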

[2] = tested on: Puccinia recondita f. sp. tritici; assay: Fungicidal activity against Puccinia recondita f. sp. tritici / wheat / leaf disc preventative (brown rust); type: in vivo; settings: foliar, 200 ppm in the applied formulation, wheat leaf segments cv. Kanzler, preventative (inoculated 1 day after application), assessed 7 to 9 days after application, read-out: disease control compared to untreated control leaf disks
Method in brief: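 Wheat cv. Kanzler leaf segments on agar sprayed with formulated compound diluted in water, inoculated with P. recondita spores 1 day later. Incubated at 19C, 75% rh, 12 h light/12 h dark; scored 7 to 9 days after application as percent disease control versus untreated segments. Test rate 200 ppm.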

Compound	pest or weed control at 100 ppm (Uromyces viciae-fabae)	pest or weed control at 200 ppm (Phakopsora pachyrhizi)	inhibition at 20 ppm [1]	pest or weed control at 200 ppm [2]
O=C(NCCc1cccs1)c1ccc(-c2noc(C(F)(F)F)n2)cc1 [Compound 5a.7, N-[2-(2-thienyl)ethyl]-4-[5-(trifluoromethyl)-1,2,4-oxadiazol-3-yl]benzamide]	≥ 80%	≥ 80%	≥ 80%	≥ 80%
CN(C(=O)c1ccc(-c2noc(C(F)(F)F)n2)cc1F)C1CCSC1 (stereo not shown) [Compound 1b.8, 2-fluoro-N-methyl-N-tetrahydrothiophen-3-yl-4-[5-(trifluoromethyl)-1,2,4-oxadiazol-3-yl]benzamide]	≥ 80%			≥ 80%
CCOc1ccc(CN(C(=O)c2ccc(-c3noc(C(F)(F)F)n3)cc2F)C(C)C)cc1OCC [Compound 4b.11, N-[(3,4-diethoxyphenyl)methyl]-2-fluoro-N-isopropyl-4-[5-(trifluoromethyl)-1,2,4-oxadiazol-3-yl]benzamide]	≥ 80%		≥ 80%	≥ 80%
CC(C)(C)OC(=O)N1CCC(CNC(=O)c2ccc(-c3noc(C(F)(F)F)n3)cc2)CC1 [Compound 1a.11, tert-butyl 4-[[[4-[5-(trifluoromethyl)-1,2,4-oxadiazol-3-yl]benzoyl]amino]methyl]piperidine-1-carboxylate]	≥ 80%			≥ 80%
CCOC(=O)N1CCC(NC(=O)c2ccc(-c3noc(C(F)(F)F)n3)cc2F)CC1 [Compound 1b.4, ethyl 4-[[2-fluoro-4-[5-(trifluoromethyl)-1,2,4-oxadiazol-3-yl]benzoyl]amino]piperidine-1-carbonylate]	≥ 80%			≥ 80%
C#CC1(NC(=O)c2ccc(-c3noc(C(F)(F)F)n3)cc2F)CCCCC1 [Compound 2b.2, N-(1-ethynylcyclohexyl)-2-fluoro-4-[5-(trifluoromethyl)-1,2,4-oxadiazol-3-yl]benzamide]	≥ 80%	≥ 80%	≥ 80%	
CCN1CCC[C@@H]1CNC(=O)c1ccc(-c2noc(C(F)(F)F)n2)cc1F [Compound 1b.1, N-[[(2R)-1-ethylpyrrolidin-2-yl]methyl]-2-fluoro-4-[5-(trifluoromethyl)-1,2,4-oxadiazol-3-yl]benzamide]	≥ 80%	≥ 80%		≥ 80%
O=C(NC1CCN(Cc2ccccc2)CC1)c1ccc(-c2noc(C(F)(F)F)n2)cc1F [Compound 1b.3, N-(1-benzyl-4-piperidyl)-2-fluoro-4-[5-(trifuoromethyl)-1,2,4-oxadiazol-3-yl]benzamide]	≥ 80%	≥ 80%		≥ 80%
O=C(NCCc1cccs1)c1ccc(-c2noc(C(F)(F)F)n2)cc1Cl [Compound 5b.18, 2-chloro-N-[2-(2-thienyl)ethyl]-4-[5-(trifluoromethyl)-1,2,4-oxadiazol-3-yl]benzamide]	≥ 80%		≥ 80%	≥ 80%
O=C(NC1CCSC1)c1ccc(-c2noc(C(F)(F)F)n2)cc1F (stereo not shown) [Compound 1b.11, 2-fluoro-N-tetrahydrothiophen-3-yl-4-[5-(trifluoromethyl)-1,2,4-oxadiazol-3-yl]benzamide]	≥ 80%			≥ 80%
CC1CCC(NC(=O)c2ccc(-c3noc(C(F)(F)F)n3)cc2)CC1 (stereo not shown) [Compound 2a.6, N-(4-methylcyclohexyl)-4-[5-(trifluoromethyl)-1,2,4-oxadiazol-3-yl]benzamide]	≥ 80%	≥ 80%		≥ 80%
CC(NC(=O)c1ccc(-c2noc(C(F)(F)F)n2)cc1Cl)C1CC1 (stereo not shown) [Compound 2b.15, 2-chloro-N-(1-cyclopropylethyl)-4-[5-(trifluoromethyl)-1,2,4-oxadiazol-3-yl]benzamide]	≥ 80%	≥ 80%		≥ 80%
O=C(NCc1ccc(F)c(Br)c1)c1ccc(-c2noc(C(F)(F)F)n2)cc1F [Compound 4b.13, N-[(3-bromo-4-fluoro-phenyl)methyl]-2-fluoro-4-[5-(trifluoromethyl)-1,2,4-oxadiazol-3-yl]benzamide]	≥ 80%			≥ 80%
COc1ccc(CNC(=O)c2ccc(-c3noc(C(F)(F)F)n3)cc2F)c(OC)c1 [Compound 4b.14, N-[(2,4-dimethoxyphenyl)methyl]-2-fluoro-4-[5-(trifluoromethyl)-1,2,4-oxadiazol-3-yl]benzamide]	≥ 80%			≥ 80%
CC1CCCC(NC(=O)c2ccc(-c3noc(C(F)(F)F)n3)cc2F)C1 (stereo not shown) [Compound 2b.10, 2-fluoro-N-(3-methylcyclohexyl)-4-[5-(trifluoromethyl)-1,2,4-oxadiazol-3-yl]benzamide]	≥ 80%			≥ 80%
CN(CC1CCCCN1C)C(=O)c1ccc(-c2noc(C(F)(F)F)n2)cc1 (stereo not shown) [Compound 1a.10, N-methyl-N-[(1-methyl-2-piperidyl)methyl]-4-[5-(trifluoromethyl)-1,2,4-oxadiazol-3-yl]benzamide]	≥ 80%			≥ 80%
O=C(NCC1CC(F)(F)C1(F)F)c1ccc(-c2noc(C(F)(F)F)n2)cc1Cl (stereo not shown) [Compound 2b.14, 2-chloro-N-[(2,2,3,3-tetrafluorocyclo-butyl)methyl]-4-[5-(trifluoromethyl)-1,2,4-oxadiazol-3-yl]benzamide]	≥ 80%			≥ 80%
O=C(Nc1nc(Br)n[nH]1)c1ccc(-c2noc(C(F)(F)F)n2)cc1F [Compound 5b.10, N-(3-bromo-1H-1,2,4-triazol-5-yl)-2-fluoro-4-[5-(trifluoromethyl)-1,2,4-oxadiazol-3-yl]benzamide]	≥ 80%		≥ 80%	≥ 80%
O=C(NC1(C2CC2)CC1)c1ccc(-c2noc(C(F)(F)F)n2)cc1Cl [Compound 2b.16, 2-chloro-N-(1-cyclopropylcyclo-propyl)-4-[5-(trifluoromethyl)-1,2,4-oxadiazol-3-yl]benzamide]	≥ 80%			≥ 80%
O=C(NCCCCc1ccccc1)c1ccc(-c2noc(C(F)(F)F)n2)cc1F [Compound 4b.10, 2-fluoro-N-(4-phenylbutyl)-4-[5-(trifluoromethyl)-1,2,4-oxadiazol-3-yl]benzamide]	≥ 80%	≥ 80%	≥ 80%	
O=C(N[C@H]1CCN(Cc2ccccc2)C1)c1ccc(-c2noc(C(F)(F)F)n2)cc1 [Compound 1a.6, N-[(3S)-1-benzylpyrrolidin-3-yl]-4-[5-(trifluoromethyl)-1,2,4-oxadiazol-3-yl]benzamide]	≥ 80%			≥ 80%
O=C(NC1(C2CC2)CC1)c1ccc(-c2noc(C(F)(F)F)n2)cc1F [Compound 2b.6, N-(1-cyclopropylcyclo-propyl)-2-fluoro-4-[5-(trifluoromethyl)-1,2,4-oxadiazol-3-yl]benzamide]	≥ 80%	≥ 80%	≥ 80%	
O=C(NC1(Cc2ccc(Cl)cc2)CC1)c1ccc(-c2noc(C(F)(F)F)n2)cc1 [Compound 2a.7, N-[1-[(4-chlorophenyl)methyl]cyclopropyl]-4-[5-(trifluoromethyl)-1,2,4-oxadiazol-3-yl]benzamide]	≥ 80%	≥ 80%		≥ 80%
O=C(NC1CCCCCCC1)c1ccc(-c2noc(C(F)(F)F)n2)cc1 [Compound 2a.5, N-cyclooctyl-4-[5-(trifluoromethyl)-1,2,4-oxadiazol-3-yl]benzamide]	≥ 80%	≥ 80%		
